{"source": "paper PMC5805526", "about": "“ZB716, a steroidal selective estrogen receptor degrader (SERD), is orally efficacious in blocking tumor growth in mouse xenograft models” (Oncotarget, 2018)", "key": {"[1]": {"test_system": "MCF-7 breast cancer cells", "experiment": "MCF-7 cell growth inhibition", "type": "cell-based", "details": "Homo sapiens, MCF7, 120 h; 5 days treatment, cell count vs DMSO", "procedure": "At the end of treatment, surviving cells were counted and normalized to control cells that were treated with vehicle (DMSO) only. (B) IC50 values were obtained by deriving logarithmic curves from the %cell survival vs. treatment dose plot."}, "[2]": {"target": "T1, mutant ER (Y537S ESR1) (Homo sapiens, UniProt P03372, Y537S)", "T1 construct": "added to the C terminus of full-length wild-type and mutant (Y537S) ESR1 by PCR amplification; expressed in transfected cells; host or cells: T47D, lentiviral transduction with pFLRu-FH and puromycin selection", "T1 sequence (P03372 1-595 Y537S)": "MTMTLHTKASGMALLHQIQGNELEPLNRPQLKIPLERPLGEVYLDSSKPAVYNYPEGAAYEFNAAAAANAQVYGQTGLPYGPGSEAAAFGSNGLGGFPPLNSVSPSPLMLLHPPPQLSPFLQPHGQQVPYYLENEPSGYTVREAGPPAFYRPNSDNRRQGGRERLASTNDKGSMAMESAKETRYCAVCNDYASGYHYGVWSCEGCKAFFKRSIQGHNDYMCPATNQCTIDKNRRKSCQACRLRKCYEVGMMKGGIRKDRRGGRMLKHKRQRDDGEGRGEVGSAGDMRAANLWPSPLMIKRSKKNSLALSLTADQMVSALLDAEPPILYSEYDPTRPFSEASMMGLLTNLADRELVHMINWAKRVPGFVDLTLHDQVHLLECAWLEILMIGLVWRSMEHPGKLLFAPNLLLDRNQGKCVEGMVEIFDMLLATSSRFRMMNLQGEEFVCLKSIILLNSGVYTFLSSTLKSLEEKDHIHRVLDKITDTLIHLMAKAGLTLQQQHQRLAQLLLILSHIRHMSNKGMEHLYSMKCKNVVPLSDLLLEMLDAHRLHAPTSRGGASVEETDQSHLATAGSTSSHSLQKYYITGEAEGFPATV", "experiment": "ER downregulation in T47D/Y537S cells (Wes Simple Western)", "type": "cell-based", "details": "four hours treatment, ERα normalized to actin; read-out: IC50, ER downregulation in T47D/Y537S cells", "excerpt": "(§1) IC50 values were obtained from dose-response curves for all treatments."}, "[3]": {"test_system": "mutant ER (Y537S ESR1)", "experiment": "ER downregulation in T47D/Y537S cells (Wes Simple Western)", "type": "cell-based", "details": "T47D/Y537S", "excerpt": "as §1"}, "[4]": {"test_system": "TM00386 PDX ER+/PR+/HER2- invasive ductal carcinoma", "experiment": "Efficacy in patient derived xenograft (PDX) tumor model", "type": "in vivo, NOD scid gamma (NSG) mice", "text": "Tumor sizes were monitored and recorded every other day for three weeks of treatment duration."}, "[5]": {"experiment": "Pharmacokinetic study in rats, single oral dose", "type": "in vivo, Sprague-Dawley rats", "details": "rat; for concentration at 1 h / concentration at 3 h / concentration at 6 h / concentration at 8 h / concentration at 24 h: oral, read-out: Rat plasma concentration of ZB716 after a single oral dose", "procedure": "Female Sprague-Dawley rats, weighing between 350 and 400 g (Charles River Laboratories, Portage, MI) were used for the pharmacokinetic study on ZB716. Rats were given oral gavage containing 5% dimethyl sulfoxide (DMSO), 40% polyethylene glycol 400, 55% saline-dissolved ZB716, at doses ranging from 1 mg/kg to 20 mg/kg. After drug administration, blood samples were collected from the lateral tail vein of the rat at 1, 3, 6, 8, 24 h. Rat blood was collected with a capillary into 1.5 mL microcentrifuge tubes containing 0.01 mL of 10 % EDTA anticoagulant. Plasma was then separated from cell pellets by centrifugation in a refrigerated centrifuge at 4°C and transferred to a separate tube. Plasma samples were frozen at −80°C until analysis.\nThe plasma samples of 100 μL each were processed for analysis by a TSQ UPLC-MS/MS system. Aliquots of 10 μL of 0.5 ng/μl E-Tamoxifen-2C^13, N^15, 200 μL methanol, and 400 μl chloroform were added to the plasma in a 1.5 mL centrifuge tube in sequence. The sample was vortexed and stored at −20°C for 4 hours, followed by sonication in a Branson B3510MT Ultrasonic Cleaners for 30 min and centrifuged at 12000 RPM on a Heraeus Fresco 21 Refrigerated Micro Centrifuge from Thermo Fisher Scientific for 10 min. The supernatant was dried with a nitrogen gas flow and suspended in 100 μL methanol. Aliquots of 10 μL of the above processed samples were injected into a TSQ Vantage mass spectrometer connected with a heated electrospray ionization probe and a Dionex Ultimat 3000 UHPLC with a Hypersil gold column (50×2.1 mm). The probe setting and front mass spectrometer setting were controlled as follows: spray voltage 3200 voltage, auxiliary gas 10psi, vaporizer temperature 365°C, capillary temperature 300°C, sheath gas 30psi, S-lens RF amplitude 51 voltage. The flow gradient was started with initial 30% mobile phase A of water with 0.05% formic acid to 1 min, to 100% mobile phase B of acetonitrile with 0.05% formic acid at 8 min, and return to 30% mobile phase A at 13 min."}, "[6]": {"test_system": "ERα", "design": "method as in PMID 27529700", "details": "read-out: binding affinity to ERα, EC50; cited from earlier work"}, "[7]": {"design": "method as in PMID 27529700", "details": "mice; cited from earlier work"}, "[8]": {"details": "female, Sprague-Dawley, plasma, 1 mg/kg"}, "[9]": {"details": "female, Sprague-Dawley, plasma, 5 mg/kg"}, "[10]": {"details": "female, Sprague-Dawley, plasma, 10 mg/kg"}, "[11]": {"details": "female, Sprague-Dawley, plasma, 20 mg/kg"}}, "note": "“And” between values parts separate entries of the source, which are not always exact repeats. Identical values can stand only once. “Also recorded” adds a separate entry of the source. Like-named read-outs stand apart in the source and are kept apart here.", "data": [{"compound": "C[C@]12CC[C@@H]3c4ccc(B(O)O)cc4C[C@@H](CCCCCCCCC[S+]([O-])CCCC(F)(F)C(F)(F)F)[C@H]3[C@@H]1CC[C@@H]2O", "note": "(stereo partly drawn) [ZB716]", "values": [{"measurement": "IC50", "setting": "[1]", "result": 3.2, "unit": "nM"}, {"measurement": "DC50", "setting": "[2]", "result": 24, "unit": "nM"}, {"measurement": "drug concentration for 50% downregulation of mutant ER relative to wild type", "setting": "[3]", "result": "about 10 times"}, {"measurement": "PDX tumor growth", "setting": "[4]; ZB716 5 mg/kg PO daily", "result": "as effectively as fulvestrant treatment"}, {"measurement": "PDX tumor growth inhibition", "setting": "[4]; ZB716 20 mg/kg PO daily", "result": "greatest effect on tumor growth inhibition"}, {"measurement": "PDX tumor growth", "setting": "[4]; ZB716 at both doses (5 and 20 mg/kg PO daily)", "result": "effective in blocking tumor growth; also recorded: regression of tumor comparable to the fulvestrant group"}, {"measurement": "concentration at 1 h", "setting": "[5]; [8]", "result": "14.8 ± 6.51", "unit": "ng/mL"}, {"measurement": "concentration at 3 h", "setting": "[5]; [8]", "result": "9.23 ± 2.33", "unit": "ng/mL"}, {"measurement": "concentration at 6 h", "setting": "[5]; [8]", "result": "4.7 ± 1.66", "unit": "ng/mL"}, {"measurement": "concentration at 8 h", "setting": "[5]; [8]", "result": "4.42 ± 2.38", "unit": "ng/mL"}, {"measurement": "concentration at 24 h", "setting": "[5]; [8]", "result": "1.36 ± 1.42", "unit": "ng/mL"}, {"measurement": "concentration at 1 h", "setting": "[5]; [9]", "result": "46.5 ± 4.81", "unit": "ng/mL"}, {"measurement": "concentration at 3 h", "setting": "[5]; [9]", "result": "23.4 ± 2.8", "unit": "ng/mL"}, {"measurement": "concentration at 6 h", "setting": "[5]; [9]", "result": "15.9 ± 2.03", "unit": "ng/mL"}, {"measurement": "concentration at 8 h", "setting": "[5]; [9]", "result": "11.4 ± 0.52", "unit": "ng/mL"}, {"measurement": "concentration at 24 h", "setting": "[5]; [9]", "result": "9.37 ± 1.24", "unit": "ng/mL"}, {"measurement": "concentration at 1 h", "setting": "[5]; [10]", "result": "218 ± 27.8", "unit": "ng/mL"}, {"measurement": "concentration at 3 h", "setting": "[5]; [10]", "result": "93.6 ± 21.8", "unit": "ng/mL"}, {"measurement": "concentration at 6 h", "setting": "[5]; [10]", "result": "62 ± 14.9", "unit": "ng/mL"}, {"measurement": "concentration at 8 h", "setting": "[5]; [10]", "result": "60.7 ± 13.9", "unit": "ng/mL"}, {"measurement": "concentration at 24 h", "setting": "[5]; [10]", "result": "33.1 ± 10.6", "unit": "ng/mL"}, {"measurement": "concentration at 1 h", "setting": "[5]; [11]", "result": "1040 ± 153", "unit": "ng/mL"}, {"measurement": "concentration at 3 h", "setting": "[5]; [11]", "result": "671 ± 125", "unit": "ng/mL"}, {"measurement": "concentration at 6 h", "setting": "[5]; [11]", "result": "371 ± 111", "unit": "ng/mL"}, {"measurement": "concentration at 8 h", "setting": "[5]; [11]", "result": "300 ± 118", "unit": "ng/mL"}, {"measurement": "concentration at 24 h", "setting": "[5]; [11]", "result": "98.5 ± 36.1", "unit": "ng/mL"}, {"measurement": "Tmax", "setting": "[5]; female, Sprague-Dawley, plasma, all four oral doses (1, 5, 10, 20 mg/kg), read-out: time of peak concentration in rat plasma", "result": 1, "unit": "h"}, {"measurement": "peak plasma concentration", "setting": "[5]; 20 mg/kg oral, 20 mg/kg", "result": "over 1000 ng/mL and > 1.6 μM"}, {"measurement": "EC50", "setting": "[6]", "result": 4.1, "unit": "nM"}, {"measurement": "plasma peak concentration after single-dose oral gavage relative to same-dose fulvestrant s.c.", "setting": "[7]", "result": "over 10 times"}]}]}
